Reference: patent US20220168309A1 (F-STAR THERAPEUTICS, INC., priority 2019, published 2022)

Biological target: STING (Homo sapiens, UniProt Q86WV6)
Test: STING antagonist activity, cell-based ISG54 promoter-reporter luciferase measurement of IRF activity (THP-1 dual / RAW-ISG cells)
Settings: Antagonist Activity of Exemplary Compounds; cell line and agonist not given
Procedure: THP-1 dual cells (InvivoGen) were cultured under 5% CO2 at 37° C. in RPMI containing 10% fetal bovine serum (FBS), 100 IU mL-1 penicillin and 100 μg mL-1 streptomycin. RAW-ISG cells (InvivoGen) were cultured under 5% CO2 at 37° C. in DMEM containing 10% fetal bovine serum (FBS), 100 IU mL-1 penicillin and 100 μg mL-1 streptomycin. THP-1 dual cells were seeded into the 96 well assay plate on the day of assay whereas RAW cells were seeded into the 96 well assay plate 18 hours before the assay.
(§1) 50,000 cells seeded in a 96-well flat bottom white assay plate were treated with different concentrations (10 uM to 0.01 uM) of compounds for 1 h followed by STING induction with either 30 nM SB 11285 or 10 ug/mL 2′-3′ cGAMP. The cells were then incubated for 20 hours @ 37° C. in CO2 incubator before measuring IRF activation by using Quanti-Luc (InvivoGen). The % inhibition was calculated as 100−{[(luminescence of COI treated well/luminescence of non-COI treated well)/100]×100}. IC50 was calculated by plotting in Xlfit.
as §1, with “1 μM” for “30 nM”
THP1-Dual-WT cells (InvivoGen) were plated into 96-well flat bottom plate at 5×10^4 cells/140 μL/well in triplicate. Cells were then treated with diluted antagonist compounds at 10 μL/well for 1 h, followed by treatment with compounds or 2′3′-cGAMP/lipo mixture for 18 h. The levels of IRF activity were determined using Quanti-luc (InvivoGen) and calculated against IRF activity in DMSO-treated cells. IC50 and CC50 values were calculated using Xlfit.

Chain of STING (Q86WV6 whole entry): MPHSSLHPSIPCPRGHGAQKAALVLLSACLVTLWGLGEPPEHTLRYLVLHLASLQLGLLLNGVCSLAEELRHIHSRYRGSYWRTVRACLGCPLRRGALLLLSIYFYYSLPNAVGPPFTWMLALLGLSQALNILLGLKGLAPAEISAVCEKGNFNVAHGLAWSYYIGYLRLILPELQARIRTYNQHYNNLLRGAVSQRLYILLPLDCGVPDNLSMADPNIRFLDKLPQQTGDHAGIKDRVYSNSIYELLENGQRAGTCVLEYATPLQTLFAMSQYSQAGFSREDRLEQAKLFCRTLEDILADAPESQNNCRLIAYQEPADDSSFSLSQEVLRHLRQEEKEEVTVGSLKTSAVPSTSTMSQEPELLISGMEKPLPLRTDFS

| SMILES | IC50 [µM] |
| --- | --- |
| N#CCCOP(O)(=S)OCCCCCCCCCCCCCCCCn1cnc2nc(Cl)nc(Cl)c21 (stereo not drawn) [Compound 90, O-(2-cyanoethyl)O-(16-(2,6-dichloro-7H-purin-7-yl)hexadecyl) O-hydrogen phosphorothioate] | 5 to 10 |

Same assay, conditions: Antagonist Activity of Exemplary Compounds; cell line and agonist not given; read-out: IC50

| SMILES | IC50 [µM] |
| --- | --- |
| COC(=O)CCCCCCCCCCCCCCCn1cnc2c(Cl)nccc21 [Compound 44] | > 20 |
| Cc1nc2nc(Cl)nc(Cl)c2n1CCCCCCCCCCN1CCOCC1 [Compound 102, 4-(10-(2,6-dichloro-8-methyl-7H-purin-7-yl)decyl)morpholine] | 0.001 to 1 |
| Cc1nc2nc(Cl)nc(Cl)c2n1CCCCCCCCCCN1CCN(C)CC1 [Compound 113, 2,6-dichloro-8-methyl-7-(10-(4-methylpiperazin-1-yl)decyl)-7H-purine] | 1 to 5 |
| CC(=O)NCCCCCCCCCCCCCCCCn1c(C)nc2nc(Cl)nc(Cl)c21 [Compound 166, N-(16-(2,6-dichloro-8-methyl-7H-purin-7-yl)hexadecyl)acetamide] | 0.001 to 1 |
| Cc1nc2nc(Cl)nc(Cl)c2n1CCCCCCCCn1c(C)nc2nc(Cl)nc(Cl)c21 [Compound 63, 1,8-bis(2,6-dichloro-8-methyl-7H-purin-7-yl)octane] | 0.001 to 1 |
| O=C(O)CCCCCCCCCCCCCCCn1cnc2nc(Cl)nc(Cl)c21 [Compound 30, 16-(2,6-dichloro-7H-purin-7-yl)hexadecanoic acid] | 1 to 5 |
| Cc1nc2nc(Cl)nc(Cl)c2n1CCCCCCCCCCCCCCCC(=O)OCC(O)CO (stereo not drawn) [Compound 85, 2,3-dihydroxypropyl 16-(2,6-dichloro-8-methyl-7H-purin-7-yl)hexadecanoate] | 1 to 5 |
| Cc1nc2nc(Cl)nc(S(=O)(=O)C(C)C)c2n1CCCCCCCCCCCCCCCC(=O)OCC(C)C [Compound 159, Isobutyl 16-(2-chloro-6-(isopropylsulfonyl)-8-methyl-7H-purin-7-yl)hexadecanoate] | 1 to 5 |
| CCCCCCCCCCCCCCC(C(=O)OCc1ccc(OC)cc1)n1cnc2c(Cl)nc(Cl)nc21 (stereo not drawn) [Compound 15, 4-methoxybenzyl 2-(2,6-dichloro-9H-purin-9-yl)hexadecanoate] | > 20 |
| COC(=O)CCCCCCCCCCCCCCCn1cnc2ccnc(Cl)c21 [Compound 43] | > 20 |
| CCCCCCCCCCCCCCCCn1c(CO)nc2nc(Cl)nc(S(=O)(=O)C(C)C)c21 [Compound 122, (2-chloro-7-hexadecyl-6-(isopropylsulfonyl)-7H-purin-8-yl)methanol] | 0.001 to 1 |
| CCCCCCCCCCCCCCC(C(=O)O)n1ccc2c(Cl)nc(Cl)nc21 (stereo not drawn) [Compound 17, 2-(2,4-dichloro-7H-pyrrolo[2,3-d]pyrimidin-7-yl)hexadecanoic acid] | > 20 |
| CNC(=O)CCCCCCCCCCCCCCCn1c(C)nc2nc(Cl)nc(Cl)c21 [Compound 94, 16-(2,6-dichloro-8-methyl-7H-purin-7yl)-N-methylhexadecanamide] | 0.001 to 1 |
| CCOC(=O)CCCCCCCn1cnc2nc(Cl)nc(Cl)c21 [Compound 12] | 0.001 to 1 |
| CNC(=O)CCCCCCCCCCCCCCCn1c(C)nc2nc(Cl)nc(S(=O)(=O)C(C)C)c21 [Compound 131, 16-(2-chloro-6-(isopropylsulfonyl)-8-methyl-7H-purin-7-yl)-N-methylhexadecaanamide] | 0.001 to 1 |
| COC(=O)CCCn1cnc2nc(Cl)nc(Cl)c21 [Compound 37, methyl 4-(2,6-dichloro-7H-purin-7-yl)butanoate] | 5 to 10 |
| Cc1nc2nc(Cl)nc(S(=O)(=O)C(C)C)c2n1CCCCCCCCCCCCCCCc1nnnn1C [Compound 140, 2-chloro-6-(isopropylsulfonyl)-8-methyl-7-(15-(1-methyl-1H-tetrazol-5-yl)pentadecyl)-7H-purine] | 0.001 to 1 |
| COC(=O)CCCCCCCCCCCCCCCn1c(C)nc2c(Cl)nc(Cl)nc21 [Compound 34, methyl 16-(2,6-dichloro-8-methyl-9H-purin-9-yl)hexadecanoate] | 10 to 20 |
| Cc1nc2nc(Cl)nc(Cl)c2n1CCCCCCCCCCCCCCCCO [Compound 75] | 0.001 to 1 |
| COc1ccc(Cn2cnc3c(NCCCCCC(=O)O)nc(Cl)nc32)cc1 [Compound 22, 6-((2-chloro-9-(4-methoxybenzyl)-9H-purin-6-yl)amino)hexanoic acid] | > 20 |
| COC(=O)CCCCCCCCCCCCCCCn1ccc2c(Cl)nc(Cl)nc21 [Compound 50, methyl 16-(2,4-dichloro-7H-pyrrolo[2,3-d]pyrimidin-7-yl)hexadecanoate] | > 20 |

| SMILES | IC50 [µM] |
| --- | --- |
| COC(=O)CCCCCCCCCn1c(C)nc2nc(Cl)nc(Cl)c21 [Compound 123, Methyl 10-(2,6-dichloro-8-methyl-7H-purin-7-yl)decanoate] | 1 to 5 |
| COC(=O)Cn1c(C)nc2nc(Cl)nc(Cl)c21 [Compound 66, methyl 2-(2,6-dichloro-8-methyl-7H-purin-7-yl)acetate] | 1 to 5 |
| CCOCCOCCOC(=O)CCCCCCCCCCCCCCCn1c(C)nc2nc(Cl)nc(Cl)c21 [Compound 99, 2-(2-ethoxyethoxy)ethyl 16-(2,6-dichloro-8-methyl-7H-purin-7-yl)hexadecanoate] | 1 to 5 |
| Cc1nc2nc(Cl)nc(Cl)c2n1CCCCCCCCCCCCCCCCN1CCOCC1 [Compound 105, 4-(16-(2,6-dichloro-8-methyl-7H-purin-7-yl)hexadecyl)morpholine] | 0.001 to 1 |
| Cc1nc2nc(Cl)nc(Cl)c2n1CCCCCCCCCCCCCCCC(=O)N1CCNCC1 [Compound 87, 16-(2,6-dichloro-8-methyl-7H-purin-7-yl)-1-(piperazin-1-yl)hexadecan-1-one] | 10 to 20 |
| CCCCCCCCC(C(=O)O)n1cnc2c(Cl)nc(Cl)nc21 (stereo not drawn) [Compound 19, 2-(2,6-dichloro-9H-purin-9-yl)decanoic acid] | 5 to 10 |
| COC(=O)CCCCCCCCCCCCCCCn1c(C)nc2nc(C#N)nc(C#N)c21 [Compound 126, Methyl 16-(2,6-dicyano-8-methyl-7H-purin-7-yl)hexadecanoate] | > 20 |
| OCCOCCOCCOCCn1cnc2c(Cl)nc(Cl)nc21 [Compound 51, 2-(2-(2-(2-(2,6-dichloro-9H-purin-9-yl)ethoxy)ethoxy)ethoxy)ethan-1-ol] | > 20 |
| Cc1nc2nc(Cl)nc(Cl)c2n1C/C=C/Cn1c(C)nc2nc(Cl)nc(Cl)c21 [Compound 103, (E)-1,4-bis(2,6-dichloro-8-methyl-7H-purin-7-yl)but-2-ene] | 5 to 10 |
| Cc1nc2nc(Cl)nc(S(=O)(=O)C(C)C)c2n1CCCCCCCCCCCCCCCCN1CCOCC1 [Compound 142] | 0.001 to 1 |
| COC(=O)CCCCCCCCCCCCCCCn1c(CO)nc2nc(Cl)nc(S(=O)(=O)C(C)C)c21 [Compound 114, Methyl 16-(2-chloro-8-(hydroxymethyl)-6-(isopropylsulfonyl)-7H-purin-7-yl)hexadecanoate] | 0.001 to 1 |
| Cc1nc2nc(Cl)nc(Cl)c2n1CCCCCCCCCCCCCCCC(=O)OCCO [Compound 84, 2-hydroxyethyl 16-(2,6-dichloro-8-methyl-7H-purin-7-yl)hexadecanoate] | 1 to 5 |
| COC(=O)CCCCCCCCCCCCCCCn1cnc2nc(Cl)nc(N)c21 [Compound 9, methyl (6-amino-2-chloro-7H-purin-7-yl)hexadecanoate] | 1 to 5 |
| Cc1nc2nc(Cl)nc([S+]([O-])C(C)C)c2n1CCCCCCCCCC[N+]1([O-])CCOCC1 (stereo not drawn) [Compound 127, 4-(10-(2-chloro-6-(isopropylsulfinyl)-8-methyl-7H-purin-7-yl)decyl)morpholine 4-oxide] | > 20 |
| COC(=O)CCCCCCCCCn1c(C)nc2nc(Cl)nc(S(=O)(=O)C(C)C)c21 [Compound 125, Methyl 10-(2-chloro-6-(isopropylsulfonyl)-8-methyl-7H-purin-7-yl)decanoate] | 1 to 5 |
| CCOC(=O)CCCCCCCCCCCCCCCn1c(C)nc2nc(Cl)nc(Cl)c21 [Compound 78, ethyl 16-(2,6-dichloro-8-methyl-7H-purin-7-yl)hexadecanoate] | 0.001 to 1 |
| COC(=O)CCCCCCCCCCCCCCCn1c(CO)nc2nc(Cl)nc(Cl)c21 [Compound 93, Methyl 16-(2,6-dichloro-8-(hydroxymethyl)-7H-purin-7-yl)hexadecanoate] | 0.001 to 1 |
| Cc1nc2nc(Cl)nc(S(C)(=O)=O)c2n1CCCCCCCCCCCCCCCC(=O)OC(C)C [Compound 109, isopropyl 16-(2-chloro-8-methyl-6-(methylsulfonyl)-7H-purin-7-yl)hexadecanoate] | 0.001 to 1 |
| CCCCCCCCC(C(=O)OCC)n1cnc2nc(Cl)nc(Cl)c21 (stereo not drawn) [Compound 36, ethyl 2-(2,6-dichloro-7H-purin-7-yl) decanoate] | 1 to 5 |
| CCCCCCCCCCCCCCCCn1c(C)nc2nc(Cl)nc(Cl)c21 [Compound 77, 2,6-dichloro-7-hexadecyl-8-methyl-7H-purine] | 0.001 to 1 |
